Data set [1] concerns K. pneumoniae (ATCC13883). In words: microbe, parasite or virus in culture. The following applies: Klebsiella pneumoniae.
For data set [2], the system named is E. coli (KpC+1812446) planktonic cells. The following applies: Table 8, planktonic cells.
Data set [3] has as its system E. coli (KpC1812446). In words: microbe, parasite or virus in culture. The following applies: Escherichia coli.
Data set [4] deals with E. coli (KpC+1812446) biofilm. To be noted: Table 7, biofilm.
Data set [5] concerns E. coli (KpC1812446). The following applies: agent alone, BM2 minimal medium.
Data set [6] deals with K. pneumoniae (ATCC13883).
Data set [7] relates to K. pneumoniae (ATCC 13883). The following applies: ATCC 13883, 12 h.
For a further data set, the system named is S. aureus (ATCC 25923). To be noted: for MIC in Cu(II) supplemented medium: ATCC 25923; for MIC: ATCC 25923, 12 h.
The test system of the next data set is E. coli (KpC+ 1812446). The following applies: MH broth, 12 h, 37° C.
Another data set has as its system E. coli (ATCC 25922). The following applies: for MIC in Cu(II) supplemented medium: ATCC 25922; for MIC: ATCC 25922, 12 h.
Data set [8] relates to K. pneumoniae (KpC+ 1825971). The following applies: for MIC in Cu(II) supplemented medium: Cu(II) supplemented medium (0.25 μM); for MIC: MH broth, 12 h, 37° C.
Data set [9] relates to P. aeruginosa (ATCC 27853). To be noted: ATCC 27853, 12 h.
The next data set deals with E. coli (KpC+ 2101123). To be noted: for MIC in Cu(II) supplemented medium: Cu(II) supplemented medium (0.25 μM); for MIC: MH broth, 12 h, 37° C.
The test system of data set [10] is E. coli (KpC1812446). To be noted: Table 3, agent alone.
The test system of a further data set is MRSA (3730529). The following applies: 3730529, 12 h.
Data set [11] relates to K. pneumoniae (ATCC13883). To be noted: ATCC13883.
The test system of the next data set is E. coli KpC+1812446. The class given is in vivo, mice. On the procedure:
Male Balb/C (18-20 g) mice from the Biotério Central do Campus da USP in Ribeirão Preto, São Paulo, were kept in groups of 5 per cage at 22° C. with normal cycles of light and free access to food and water. The care and use of the animals were approved by the Ethics Committee of Universidade Católica Dom Bosco number 019/2016. We assessed the ability of the peptides to protect the mice from lethal systemic infections induced with E. coli KpC+1812446. The mice (n=40) were randomly placed into eight groups of five mice each, and each mouse was injected intraperitoneally with 200 μL of saline solution containing 2×10^7 CFU of E. coli KpC+1812446. Intraperitoneal treatment with 5 or 10 mg·Kg^−1 of each peptide was initiated after one hour of infection and repeated at 24 h intervals for seven days^61. Gentamicin at 10 mg·Kg^−1 of body weight and normal saline were used as positive and negative controls, respectively.

The mark [12] stands for this setting: antibiotic in combination with CM15.
[13] abbreviates: antibiotic in combination with GGH-CM15.
[14] abbreviates: antibiotic in combination with VIH-CM15.
Where [15] appears, read: agent alone, BM2 minimal medium.
Setting [16] is: Cu(II) in MH broth, determined in our laboratory.

≈ marks a conversion by molar mass, not a printed value. Like-named read-outs stand apart in the source and are kept apart here. Ends that are not written are not given here.

Regarding `C[C@@H](O)[C@H]1C(=O)N2C(C(=O)O)=C(S[C@@H]3CN[C@H](C(=O)N(C)C)C3)[C@H](C)[C@H]12` [MER, meropenem], the MIC in [1] is above 167 µM; with E. coli (KpC1812446) [3] it was 0.6 µM (≈ 0.23 µg/mL). In addition, the “MBIC Antibiotic alone” value in data set [2] and in [4] was 0.6 µM throughout. Moreover, the “MBIC Antibiotic + Peptide” value in [2] (setting [12]) was 0.6 µM; in data set [2] (setting [13]) it was 0.16 µM; in data set [2] (setting [14]), 0.3 µM; in [4] (setting [12]), 0.16 µM; in [4] (setting [13]), 0.013 µM; in data set [4] (setting [14]) it was 0.04 µM. Besides, the MBIC in the data set on E. coli (KpC1812446) [5] was 0.6 µM; in data set [6] (setting [15]), above 167 µM.
For the compound `[H]/N=C(/N)N[C@H]1[C@H](O)[C@@H](O)[C@H](O[C@@H]2O[C@@H](C)[C@](O)(C=O)[C@H]2O[C@@H]2O[C@@H](CO)[C@H](O)[C@@H](O)[C@@H]2NC)[C@@H](N/C(N)=N\[H])[C@@H]1O` [STR, streptomycin], the MIC in data set [1] was above 110 µM; against E. coli (KpC1812446) [3], 14 µM (≈ 8.14 µg/mL). The “MBIC Antibiotic alone” value in data set [2] and in data set [4] was 14 µM throughout. Further, the “MBIC Antibiotic + Peptide” value stood at 4 µM in data set [2] (setting [12]); 14 µM in data set [2] (setting [13]); 0.4 µM in data set [2] (setting [14]); 4 µM in data set [4] (setting [12]); 4 µM in data set [4] (setting [13]); 7 µM in data set [4] (setting [14]). Further, the MBIC in the data set with E. coli (KpC1812446) [5] was 14 µM; in [6] (setting [15]), above 110 µM.
Take “VIHGLFDVIKKVASVIGGL-NH2 [VIH-Citropin1.1]”: the MIC is above 33 µM in [7]; 4 µM against S. aureus (ATCC 25923); 33 µM in the data set with E. coli (KpC+ 1812446); above 33 µM with E. coli (ATCC 25922); above 33 µM in [8]; above 33 µM in data set [9]. The MIC against E. coli (KpC+ 2101123) is 16 µM; in the data set on E. coli (KpC1812446) [10] it was above 33 µM; with MRSA (3730529), 16 µM; in data set [11] it was above 33 µM. Also, the “MIC in Cu(II) supplemented medium” value in the data set on S. aureus (ATCC 25923) is 4 µM; against E. coli (ATCC 25922), above 33 µM; in data set [8] it was above 33 µM; against E. coli (KpC+ 2101123) it was 16 µM. For the same compound, the MBIC (in the data set with E. coli (KpC1812446) [5]; in data set [6] (ATCC13883)) was above 33 µM throughout.
With `O=C(N[C@H](CO)[C@H](O)c1ccc([N+](=O)[O-])cc1)C(Cl)Cl` [CHL, chloramphenicol], the MIC (in [1]; against E. coli (KpC1812446) [3]) was above 198 µM each time. Also, the “MBIC Antibiotic alone” value in [2] and in [4] was 396 µM throughout. The “MBIC Antibiotic + Peptide” value in [2] (setting [12]) is 0.8 µM; in [2] (setting [13]), 3 µM; in [2] (setting [14]), 0.8 µM; in data set [4] (setting [12]), 396 µM; in [4] (setting [13]) it was 396 µM; in data set [4] (setting [14]), 396 µM. Besides, the MBIC (in the data set with E. coli (KpC1812446) [5]; in [6] (setting [15])) was above 198 µM in each case.
With “GLFDVIKKVASVIGGL-NH2 [Citropin1.1, GLFDVIKKVASVIGGL-NH2, reference compound]”, the MIC in data set [7] was 20 µM; against S. aureus (ATCC 25923), 3 µM; with E. coli (KpC+ 1812446), 10 µM; in the data set on E. coli (ATCC 25922), 10 µM; in data set [8], 20 µM; in data set [9] it was above 40 µM. Also, the MIC with E. coli (KpC+ 2101123) is 5 µM; in the data set on E. coli (KpC1812446) [10] it was above 40 µM; in the data set on MRSA (3730529), 10 µM; in data set [11], above 40 µM. Further, the “MIC in Cu(II) supplemented medium” value in the data set with S. aureus (ATCC 25923) was 3 µM; in the data set on E. coli (ATCC 25922), 10 µM; in data set [8], 20 µM; against E. coli (KpC+ 2101123) it was 5 µM. Also, the MBIC (with E. coli (KpC1812446) [5]; in data set [6] (ATCC13883)) was above 40 µM in each case.
For the compound “GGHGLFDVIKKVASVIGGL-NH2 [GGH-Citropin1.1]”, the MIC in data set [7] is 34 µM; in the data set with S. aureus (ATCC 25923), 9 µM; in the data set on E. coli (KpC+ 1812446), 34 µM; against E. coli (ATCC 25922), 34 µM; in data set [8] it was above 34 µM; in [9], above 34 µM. Moreover, the MIC against E. coli (KpC+ 2101123) is 9 µM; in the data set with E. coli (KpC1812446) [10], above 34 µM; against MRSA (3730529), 17 µM; in [11], above 34 µM. The “MIC in Cu(II) supplemented medium” value against S. aureus (ATCC 25923) is 9 µM; against E. coli (ATCC 25922) it was 34 µM; in data set [8], above 34 µM; against E. coli (KpC+ 2101123), 9 µM. The MBIC (in the data set with E. coli (KpC1812446) [5]; in [6] (ATCC13883)) was above 34 µM in each case.
On to `COc1cc(Cc2cnc(N)nc2N)cc(OC)c1OC` [TRI, trimethoprim], for which the MIC (in data set [1]; in the data set with E. coli (KpC1812446) [3]) was above 220 µM throughout. Further, the “MBIC Antibiotic alone” value in [2] and in data set [4] was 440 µM throughout. Moreover, the “MBIC Antibiotic + Peptide” value in [2] (setting [12]) was determined as 55 µM; in data set [2] (setting [13]), 110 µM; in [2] (setting [14]), 220 µM; in data set [4] (setting [12]) it was 440 µM; in data set [4] (setting [13]), 220 µM; in data set [4] (setting [14]) it was 220 µM. In addition, the MBIC (in the data set with E. coli (KpC1812446) [5]; in [6] (setting [15])) was above 220 µM throughout.
Take “KWKLFKKIGAVLKVL [CM15, KWKLFKKIGAVLKVL, reference compound]”: the mouse deaths entry in the data set with E. coli KpC+1812446 (10 mg·Kg^−1 intraperitoneal) is recorded as “led to mouse deaths after two days of treatment”. Further, in the data set with E. coli KpC+1812446 (infected Balb/C mice, 5 and 10 mg·Kg^−1), the in vivo toxicity entry is “high in vivo toxicity”.
On to `O.O.O.O.O.O=S(=O)([O-])[O-].[Cu+2]` [Cu(II) ions, CuSO4·5H2O], for which the toxic level with S. aureus (ATCC 25923) (setting [16]) and in the data set with E. coli (ATCC 25922) (setting [16]) was 7.8 mM each time.
Turning to `CC1(C)S[C@@H]2[C@H](NC(=O)[C@H](N)c3ccccc3)C(=O)N2[C@H]1C(=O)O` [AmP, ampicillin], the MIC (in data set [1]; in the data set with E. coli (KpC1812446) [3]) was above 183 µM throughout. Also, the “MBIC Antibiotic alone” value in data set [2] and in data set [4] was 366 µM throughout. The “MBIC Antibiotic + Peptide” value in [2] (setting [12]), in [2] (setting [13]), in data set [2] (setting [14]), in [4] (setting [12]), in data set [4] (setting [13]) and in data set [4] (setting [14]) was 366 µM throughout. Besides, the MBIC (in the data set on E. coli (KpC1812446) [5]; in [6] (setting [15])) was above 183 µM throughout.
